The source of these data is patent publication US9346809B2 (LEO PHARMA A/S, priority 2009, dated 2016).

Where two headings read alike, the source gives them in different places.

Common to all, as to assay type: biochemical
For assay [1], the target named is T1, JAK1 (aa 850-1154, catalytic domain, GST-tag) (Homo sapiens, UniProt P23458).
T1 construct: JAK1 (aa 850-1154) and TYK2 (aa 871-1187) are expressed with an N-terminally fused GST-tag; GST (N); purchased Carna Biosciences, Inc; host or cells: baculovirus expression system
T1 sequence (P23458 850-1154): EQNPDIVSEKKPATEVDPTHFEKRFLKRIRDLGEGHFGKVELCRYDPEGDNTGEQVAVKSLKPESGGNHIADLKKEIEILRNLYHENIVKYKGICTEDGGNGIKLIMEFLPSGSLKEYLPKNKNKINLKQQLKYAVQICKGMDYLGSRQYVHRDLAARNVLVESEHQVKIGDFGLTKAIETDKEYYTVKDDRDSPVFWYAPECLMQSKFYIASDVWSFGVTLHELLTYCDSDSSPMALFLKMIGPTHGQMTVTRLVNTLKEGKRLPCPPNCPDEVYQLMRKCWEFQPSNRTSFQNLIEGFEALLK
As to the kind of experiment: JAK kinase assay (HTRF, phosphorylation of TK substrate-biotin), JAK1. The conditions noted are these: ATP at Km (7 μM), read-out: JAK1 kinase inhibitory activity (EC50 indicator). Put shortly:
(§1)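 Catalytic-domain kinases phosphorylated 1 μM biotin-TK substrate at ATP Km (JAK1 7 μM, JAK2 4 μM, JAK3 2 μM, TYK2 13 μM) in Hepes pH 7.0 with DTT and MgCl2, for 20-30 min at RT; JAK1 and TYK2 also had 50 nM SEB. Detection was by HTRF (streptavidin-XL665/Cryptate antibody) overnight, giving EC50.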
In general terms: Time-resolved FRET reads energy transfer from a long-lived donor to a nearby acceptor.

For assay [2], the target named is T2, TYK2 (aa 871-1187, catalytic domain, GST-tag) (Homo sapiens, UniProt P29597).
T2 construct: JAK1 (aa 850-1154) and TYK2 (aa 871-1187) are expressed with an N-terminally fused GST-tag; GST (N); purchased Carna Biosciences, Inc; host or cells: baculovirus expression system
T2 sequence (P29597 871-1187): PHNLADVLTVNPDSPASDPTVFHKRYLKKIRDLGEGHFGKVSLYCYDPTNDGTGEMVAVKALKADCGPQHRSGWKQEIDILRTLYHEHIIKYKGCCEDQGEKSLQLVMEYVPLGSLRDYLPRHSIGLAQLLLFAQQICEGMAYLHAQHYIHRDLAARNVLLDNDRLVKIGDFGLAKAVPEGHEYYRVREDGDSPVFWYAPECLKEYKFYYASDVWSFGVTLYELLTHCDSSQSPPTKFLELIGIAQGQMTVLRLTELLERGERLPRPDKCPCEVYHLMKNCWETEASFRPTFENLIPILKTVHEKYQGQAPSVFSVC
Description: JAK kinase assay (HTRF, phosphorylation of TK substrate-biotin), TYK2. The note with it: ATP at Km (13 μM), read-out: TYK2 kinase inhibitory activity (EC50 indicator). The procedure, abridged:
as §1

The target of assay [3] is T3, JAK2 (catalytic domain, His-tag) (Homo sapiens, UniProt O60674).
T3 construct: All four purified enzymes contain only the catalytic domain; His (N); purchased Carna Biosciences, Inc; host or cells: baculovirus expression system
T3 sequence (O60674 849-1124 limits assumed): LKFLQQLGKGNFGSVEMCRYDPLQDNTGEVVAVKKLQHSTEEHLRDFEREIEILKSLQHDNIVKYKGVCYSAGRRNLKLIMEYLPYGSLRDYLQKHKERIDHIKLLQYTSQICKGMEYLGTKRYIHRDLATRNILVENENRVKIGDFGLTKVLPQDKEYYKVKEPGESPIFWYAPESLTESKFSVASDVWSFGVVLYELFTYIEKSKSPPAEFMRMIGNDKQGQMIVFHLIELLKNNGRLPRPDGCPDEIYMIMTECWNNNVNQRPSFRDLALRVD
As to the kind of experiment: JAK kinase assay (HTRF, phosphorylation of TK substrate-biotin), JAK2. The note with it: ATP at Km (4 μM), read-out: JAK2 kinase inhibitory activity (EC50 indicator). The procedure, abridged:
as §1

Assay [4] concerns the target T4, JAK3 (catalytic domain, His-tag) (Homo sapiens, UniProt P52333).
T4 construct: All four purified enzymes contain only the catalytic domain; His (N); purchased Carna Biosciences, Inc; host or cells: baculovirus expression system
Description: JAK kinase assay (HTRF, phosphorylation of TK substrate-biotin), JAK3. The note with it: ATP at Km (2 μM), read-out: JAK3 kinase inhibitory activity (EC50 indicator). The procedure, abridged: as §1

T4 sequence (P52333 822-1111 limits assumed): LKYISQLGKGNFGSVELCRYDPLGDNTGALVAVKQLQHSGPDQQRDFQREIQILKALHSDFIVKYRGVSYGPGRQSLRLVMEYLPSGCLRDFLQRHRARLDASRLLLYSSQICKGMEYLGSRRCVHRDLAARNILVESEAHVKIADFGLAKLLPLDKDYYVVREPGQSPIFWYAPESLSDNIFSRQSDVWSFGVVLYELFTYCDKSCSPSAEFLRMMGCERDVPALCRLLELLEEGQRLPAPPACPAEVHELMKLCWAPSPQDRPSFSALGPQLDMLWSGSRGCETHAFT

On to `NS(=O)(=O)c1ccc(/C=C/C(=O)N2CCN(c3ncnc4[nH]ccc34)CC23CC3)cc1` [Example 197, 4-{3-Oxo-3-[7-(7H-pyrrolo[2,3-d]pyrimidin-4-yl)-4,7-diaza-spiro[2.5]oct-4-0]-propenyl}-benzenesulfonamide], for which the 50% effective concentration (EC50) in assay [1], in assay [2], in assay [3] and in assay [4] was < 100 nM in each case.
As to `NS(=O)(=O)c1ccc(C(=O)N2CCN(c3ncnc4[nH]ccc34)CC23CC3)o1` [Example 198, 5-[7-(7H-Pyrrolo[2,3-d]pyrimidin-4-yl)-4,7-diaza-spiro[2.5]octane-4-carbonyl]-furan-2-sulfonic acid amide], the 50% effective concentration (EC50) in assay [1], in assay [2], in assay [3] and in assay [4] was < 100 nM each time.
As for `N#Cc1csc(C(=O)N2C3CCC2CN(c2ncnc4[nH]ccc24)C3)c1` [Example 199, 5-[3-(7H-Pyrrolo[2,3-d]pyrimidin-4-yl)-3,8-diaza-bicyclo[3.2.1]octane-8-carbonyl]-thiophene-3-carbonitrile], the EC50 (as a rule, the concentration giving half of the maximal effect) was < 100 nM in assay [1], 100 to 500 nM in assay [2], < 100 nM in assay [3] and < 100 nM in assay [4].
On to `Cc1ccc2[nH]c(C(=O)N3C4CCC3CN(c3ncnc5[nH]ccc35)C4)cc2c1` [Example 200, (5-Methyl-1H-indol-2-yl)-[3-(7H-pyrrolo[2,3-d]pyrimidin-4-yl)-3,8-diaza-bicyclo[3.2.1]oct-8-yl]-methanone], for which the 50% effective concentration (EC50) in assay [1] is < 100 nM; in assay [2], > 500 nM; in assay [3] it was < 100 nM; in assay [4], 100 to 500 nM.
For the molecule `Cc1c(C(=O)N2C3CCC2CN(c2ncnc4[nH]ccc24)C3)[nH]c2ccc(F)cc12` [Example 201, (5-Fluoro-3-methyl-1H-indol-2-yl)-[3-(7H-pyrrolo[2,3-d]pyrimidin-4-yl)-3,8-diaza-bicyclo[3.2.1]oct-8-yl]-methanone], the half-maximal effective concentration (EC50) in assay [1] was < 100 nM; in assay [2] it was > 500 nM; in assay [3] it was 100 to 500 nM; in assay [4], 100 to 500 nM.
Turning to `CC(C)S(=O)(=O)c1ccc(C(=O)N2C3CCC2CN(c2ncnc4[nH]ccc24)C3)cc1` [Example 202, [4-(Propane-2-sulfonyl)-phenyl]-[3-(7H-pyrrolo[2,3-d]pyrimidin-4-yl)-3,8-diaza-bicyclo[3.2.1]oct-8-yl]-methanone], the concentration for a half-maximal effect (EC50) was 100 to 500 nM in assay [1], > 500 nM in assay [2], 100 to 500 nM in assay [3] and > 500 nM in assay [4].
Take `NS(=O)(=O)c1ccc(C(=O)N2C3CCC2CN(c2ncnc4[nH]ccc24)C3)o1` [Example 203]: the concentration for a half-maximal effect (EC50) is < 100 nM in assay [1], > 500 nM in assay [2], < 100 nM in assay [3] and < 100 nM in assay [4].
On to `O=C(c1ccc(S(=O)(=O)NCc2cccs2)cc1)N1CCN(c2ncnc3[nH]ccc23)CC12CC2` [Example 204, 4-[7-(7H-Pyrrolo[2,3-d]pyrimidin-4-yl)-4,7-diaza-spiro[2.5]octane-4-carbonyl]-N-thiophen-2-ylmethyl-benzenesulfonamide], for which the half-maximal effective concentration (EC50) was < 100 nM in assay [1], 100 to 500 nM in assay [2], < 100 nM in assay [3] and < 100 nM in assay [4].
As for `O=C(C(=O)N1CCN(c2ncnc3[nH]ccc23)CC12CC2)c1cccs1` [Example 205, 1-[7-(7H-Pyrrolo[2,3-d]pyrimidin-4-yl)-4,7-diaza-spiro[2.5]oct-4-yl]-2-thiophen-2-yl-ethane-1,2-d lone], the concentration for a half-maximal effect (EC50) in assay [1] was < 100 nM; in assay [2], 100 to 500 nM; in assay [3] it was < 100 nM; in assay [4], < 100 nM.
Take `COc1ccc(C(=O)N2CCN(c3ncnc4[nH]ccc34)CC23CC3)s1` [Example 206, (5-Methoxy-thiophen-2-yl)-[7-(7H-pyrrolo[2,3-d]pyrimidin-4-yl)-4,7-diaza-spiro[2.5]oct-4-yl]-methanone]: the 50% effective concentration (EC50) in assay [1] (HTRF assay), in assay [2] (HTRF assay), in assay [3] (HTRF assay) and in assay [4] (HTRF assay) was < 100 nM throughout.
On to `CCCc1cc(C(=O)N2CCN(c3ncnc4[nH]ccc34)CC23CC3)cs1` [Example 207, (5-Propyl-thiophen-3-yl)-[7-(7H-pyrrolo[2,3-d]pyrimidin-4-yl)-4,7-diaza-spiro[2.5]oct-4-yl]-methanone], for which the EC50 in assay [1] (HTRF assay) is < 100 nM; in assay [2] (HTRF assay) it was 100 to 500 nM; in assay [3] (HTRF assay), < 100 nM; in assay [4] (HTRF assay), 100 to 500 nM.
As to `Cc1sc(C(=O)N2CCN(c3ncnc4[nH]ccc34)CC23CC3)cc1Br` [Example 208, (4-Bromo-5-methyl-thiophen-2-yl)-[7-(7H-pyrrolo[2,3-d]pyrimidin-4-yl)-4,7-diaza-spiro[2.5]oct-4-yl]-methanone], the half-maximal effective concentration (EC50) in assay [1] (HTRF assay), in assay [2] (HTRF assay), in assay [3] (HTRF assay) and in assay [4] (HTRF assay) was < 100 nM each time.
`CCc1sc(C(=O)N2CCN(c3ncnc4[nH]ccc34)CC23CC3)cc1Br` [Example 209, (4-Bromo-5-ethyl-thiophen-2-yl)-[7-(7H-pyrrolo[2,3-d]pyrimidin-4-yl)-4,7-diaza-spiro[2.5]oct-4-yl]-methanone]: the EC50 is < 100 nM in assay [1] (HTRF assay), < 100 nM in assay [2] (HTRF assay), < 100 nM in assay [3] (HTRF assay) and 100 to 500 nM in assay [4] (HTRF assay).
Turning to `CCS(=O)(=O)Nc1ccc(C(=O)N2CCN(c3ncnc4[nH]ccc34)CC23CC3)cc1` [Example 210, Ethanesulfonic acid {4-[7-(7H-pyrrolo[2,3-d]pyrimidin-4-yl)-4,7-diaza-spiro[2.5]octane-4-carbonyl]-phenyl}-amide], the EC50 in assay [1] (HTRF assay), in assay [2] (HTRF assay), in assay [3] (HTRF assay) and in assay [4] (HTRF assay) was < 100 nM in each case.
For `O=C(c1cccs1)N1CCN(c2ncnc3[nH]ccc23)CC12CC2` [Example 211, [7-(7H-Pyrrolo[2,3-d]pyrimidin-4-yl)-4,7-diaza-spiro[2.5]oct-4-yl]-thiophen-2-yl-methanone], the EC50 in assay [1] (HTRF assay) is < 100 nM; in assay [2] (HTRF assay), 100 to 500 nM; in assay [3] (HTRF assay) it was < 100 nM; in assay [4] (HTRF assay), < 100 nM.
On to `COc1cccc(C(=O)N2CCN(c3ncnc4[nH]ccc34)CC23CC3)c1OC` [Example 212, (2,3-Dimethoxy-phenyl)-[7-(7H-pyrrolo[2,3-d]pyrimidin-4-yl)-4,7-diaza-spiro[2.5]oct-4-yl]-methanone], for which the EC50 in assay [1] (HTRF assay) was 100 to 500 nM; in assay [2] (HTRF assay), > 500 nM; in assay [3] (HTRF assay), < 100 nM; in assay [4] (HTRF assay) it was > 500 nM.
For the molecule `COc1cc(OC)cc(C(=O)N2CCN(c3ncnc4[nH]ccc34)CC23CC3)c1` [Example 213, (3,5-Dimethoxy-phenyl)-[7-(7H-pyrrolo[2,3-d]pyrimidin-4-yl)-4,7-diaza-spiro[2.5]oct-4-yl]-methanone], the EC50 is < 100 nM in assay [1] (HTRF assay), 100 to 500 nM in assay [2] (HTRF assay), < 100 nM in assay [3] (HTRF assay) and 100 to 500 nM in assay [4] (HTRF assay).
As for `O=C(c1csc2ccccc12)N1CCN(c2ncnc3[nH]ccc23)CC12CC2` [Example 214, Benzo[b]thiophen-3-yl-[7-(7H-pyrrolo[2,3-d]pyrimidin-4-yl)-4,7-diaza-spiro[2.5]oct-4-yl]-methanone], the EC50 in assay [1] (HTRF assay), in assay [2] (HTRF assay), in assay [3] (HTRF assay) and in assay [4] (HTRF assay) was < 100 nM in each case.
